From patent US11286258B2, “Nature-inspired anticancer and antibacterial motifs and pharmaceutical composition thereof” (University of Sharjah, priority 2020, dated 2022)
In brackets after ≈: the same amount, converted by molar mass.

Experiments:
[1] = tested on: MRSA-ATCC33591; assay: MIC broth microdilution, MRSA ATCC33591; assay type: cell-based, Staphylococcus aureus; details: overnight incubation, Mueller-Hinton broth; for MIC: Staphylococcus aureus, read-out: MIC MRSA-ATCC33591
Procedure: (§1) Antibacterial activity: The compounds were tested for the minimum inhibitory concentrations (MIC), which is the lowest concentration of a chemical required to inhibit visible microbial growth following overnight incubation. MIC values were determined using broth microdilution method according to the Clinical and Laboratory Standards Institute guidelines (CLSI, 2015, M07-A10). Mueller-Hinton broth was used as a culture medium in all the experiments. Exponentially growing bacterial cells were prepared in Mueller-Hinton broth at a concentration of approximately 5×10^5 CFU/mL. Two-fold serial dilutions of the test compound (8 concentrations ranged between 100-0.78 μg/mL) were tested. […] In each experiment, solvent (DMSO) was used as a negative control, un-treated control (composing of bacteria in Mueller-Hinton broth) was used as a growth control, blank (culture media alone) was used as sterility control. The 96-well microplate with the test compounds was incubated overnight at 37° C. Turbidity in wells indicated bacterial growth.
(§2) The compounds were tested on six MDR Gram-positive bacteria including three clinical isolates of methicillin-resistant Staphylococcus aureus (MRSA-1, MRSA-2 and MRSA-3) and three reference MRSA strains (ATCC33591, ATCC33592 and ATCC700699). They were also tested on three MDR Gram-negative bacteria including New Delhi metallo-beta-lactamase (NDM-1) positive, carbapenem-resistant E. coli (ATCC BAA2469), extended-spectrum beta-lactamase (ESBL) producing, colistin-resistant E. coli (CDC-AR-0346) and carbapenem-resistant Acinetobacter baumannii (ATCC BAA1605), in addition to two non-MDR bacteria from the same species, namely E. coli (ATCC 25922) Acinetobacter baumannii (ATCC 19606).

[2] = tested on: MRSA-1 (clinical isolate); assay: MIC broth microdilution, MRSA-1; assay type: cell-based, Staphylococcus aureus; details: overnight incubation, Mueller-Hinton broth; for MIC: Staphylococcus aureus, MRSA, read-out: MIC MRSA-1 (clinical isolate)
Procedure: as §1, §2

[3] = tested on: MRSA-ATCC33592; assay: MIC broth microdilution, MRSA ATCC33592; assay type: cell-based, Staphylococcus aureus; details: overnight incubation, Mueller-Hinton broth; for MIC: Staphylococcus aureus, read-out: MIC MRSA-ATCC33592
Procedure: as §1, §2

[4] = tested on: MRSA-2 (clinical isolate); assay: MIC broth microdilution, MRSA-2; assay type: cell-based, Staphylococcus aureus; details: overnight incubation, Mueller-Hinton broth; for MIC: Staphylococcus aureus, MRSA, read-out: MIC MRSA-2 (clinical isolate)
Procedure: as §1, §2

[5] = tested on: HEP3B; assay: MTT cell viability, HEP3B; assay type: cell-based; details: Homo sapiens, liver cancer, 48 h of drug treatment, average of three experiments
Description: (§3) Cell culture: In this study five different cancer cell lines were used, human lung carcinoma (A549), human breast adenoma (MCF-7), Cervical carcinoma (Hela), hepatocellular carcinoma (Hep3B), and colorectal adenocarcinoma (HCT-116). These cells were obtained from the European Collection of Cell Cultures (ECACC, UK). Hep3B cells were maintained in Dulbecco's Modified Eagle Medium (DMEM: Sigma-Aldrich), and the four other cell lines were maintained in Roswell Park Memorial Institute medium (RPMI, Sigma-Aldrich, St. Louis, Mo., USA), which was supplemented with 10% fetal bovine serum (FBS, Sigma-Aldrich) and 1% penicillin/streptomycin (Sigma-Aldrich). Cells were incubated all the time at 37° C. in a humidified atmosphere of 5% CO2. Cell viability studies: Cell viability was assessed using the MTT assay as described before. In brief, all cancer cell lines were seeded at a density of 4×10^4/well in 96 well flat-bottom plates. After 24 h from seeding, cells were treated with the synthesized compounds and left for an incubation period of 48 h. Upon reaching the indicated time point, the media was removed and replaced with 200 μL fresh media containing 0.5 mg/mL of MTT tetrazolium dye (Sigma-Aldrich). Cells were then incubated with MTT solution for 2 h at 37° C. The resultant formazan crystals were dissolved in 200 μl/well of DMSO and absorbance was measured at 570 nm using a microplate reader (Thermo Scientific).

[6] = tested on: HCT-116; assay: MTT cell viability, HCT-116; assay type: cell-based; details: Homo sapiens, colon cancer, 48 h of drug treatment, average of three experiments
Description: as §3

[7] = tested on: MRSA-ATCC700699 (VISA); assay: MIC broth microdilution, MRSA ATCC700699 (VISA); assay type: cell-based, Staphylococcus aureus; details: strain intermediately resistant to vancomycin, overnight incubation; for MIC: Staphylococcus aureus, read-out: MIC MRSA-ATCC700699 (VISA)
Procedure: as §1, §2

[8] = tested on: MRSA-3 (clinical isolate); assay: MIC broth microdilution, MRSA-3; assay type: cell-based, Staphylococcus aureus; details: overnight incubation, Mueller-Hinton broth; for MIC: Staphylococcus aureus, MRSA, read-out: MIC MRSA-3 (clinical isolate)
Procedure: as §1, §2

[9] = tested on: HELA; assay: MTT cell viability, HELA; assay type: cell-based; details: Homo sapiens, cervical cancer, 48 h of drug treatment, average of three experiments
Description: as §3

[10] = tested on: MCF-7; assay: MTT cell viability, MCF-7; assay type: cell-based; details: Homo sapiens, MCF7; breast cancer; 48 h of drug treatment; average of three experiments
Description: as §3

[11] = tested on: A549; assay: MTT cell viability, A549; assay type: cell-based; details: Homo sapiens, lung cancer, 48 h of drug treatment, average of three experiments
Description: as §3

[12] = tested on: normal epithelial cells (HMEC); assay: Cell viability, normal epithelial cells; assay type: cell-based; details: Homo sapiens, 48 h of drug treatment, average of three experiments
Procedure: Cell viability studies: Cell viability was assessed using the MTT assay as described before. In brief, all cancer cell lines were seeded at a density of 4×10^4/well in 96 well flat-bottom plates. After 24 h from seeding, cells were treated with the synthesized compounds and left for an incubation period of 48 h. Upon reaching the indicated time point, the media was removed and replaced with 200 μL fresh media containing 0.5 mg/mL of MTT tetrazolium dye (Sigma-Aldrich). Cells were then incubated with MTT solution for 2 h at 37° C. The resultant formazan crystals were dissolved in 200 μl/well of DMSO and absorbance was measured at 570 nm using a microplate reader (Thermo Scientific).

[13] = tested on: E. coli ATCC BAA2469 (NDM-1 carbapenem-resistant); assay: MIC broth microdilution, E. coli ATCC BAA2469; assay type: cell-based, Escherichia coli; details: MDR; overnight incubation
Procedure: as §1, §2

[14] = tested on: E. coli ATCC25922; assay: MIC broth microdilution, E. coli ATCC25922; assay type: cell-based, Escherichia coli; details: not MDR; overnight incubation
Procedure: as §1, §2

[15] = tested on: E. coli CDC-AR-0346 (ESBL, colistin resistant); assay: MIC broth microdilution, E. coli CDC-AR-0346; assay type: cell-based, Escherichia coli; details: MDR; overnight incubation
Procedure: as §1, §2

[16] = tested on: Acinetobacter baumannii ATCC BAA1605 (carbapenem-resistant); assay: MIC broth microdilution, A. baumannii ATCC BAA1605; assay type: cell-based; details: MDR; overnight incubation
Procedure: as §1, §2

[17] = tested on: Acinetobacter baumannii ATCC 19606; assay: MIC broth microdilution, A. baumannii ATCC 19606; assay type: cell-based; details: not MDR; overnight incubation
Procedure: as §1, §2

Compound | MIC [1] [µg/mL] | MIC [2] [µg/mL] | MIC [3] [µg/mL] | MIC [4] [µg/mL] | MIC [7] [µg/mL] | MIC [8] [µg/mL] | other results
Brc1ccc(N/N=C2\C=C[C@@]3(CC2)CC[C@@H]2NCCc4c2n3c2ccccc42)cc1 [Compound 1c] | 6.25 (≈ 13.5 µM) | 3.12 (≈ 6.77 µM) | 6.25 (≈ 13.5 µM) | 3.12 (≈ 6.77 µM) | 6.25 (≈ 13.5 µM) | 3.12 (≈ 6.77 µM) | IC50 [5]: 4.21 ± 0.06 µM; IC50 [6]: 2.65 ± 0.05 µM; IC50 [9]: 5.3 ± 0.35 µM; IC50 [10]: 2.75 ± 0.06 µM; IC50 [11]: 3.9 ± 0.04 µM
COC(=O)[C@H]1Cc2c3n(c4ccccc24)[C@@]2(C=C/C(=N\Nc4ccc(C(F)(F)F)cc4)CC2)CC[C@@H]3N1 [Compound 1n] | 6.25 (≈ 12.3 µM) | 3.12 (≈ 6.14 µM) | 6.25 (≈ 12.3 µM) | 3.12 (≈ 6.14 µM) | 6.25 (≈ 12.3 µM) | 3.12 (≈ 6.14 µM) | 
FC(F)(F)c1ccc(N/N=C2\C=C[C@@]3(CC2)CC[C@@H]2NCCc4c2n3c2ccc(OCc3ccccc3)cc42)cc1 [Compound 1l] | 3.12 (≈ 5.61 µM) | 1.56 (≈ 2.8 µM) | 3.12 (≈ 5.61 µM) | 3.12 (≈ 5.61 µM) | 3.12 (≈ 5.61 µM) | 3.12 (≈ 5.61 µM) | 
COC(=O)[C@@H]1Cc2c3n(c4ccccc24)[C@@]2(C=C/C(=N\Nc4ccc(C(F)(F)F)cc4)CC2)CC[C@@H]3N1 [Compound 1m] | 6.25 (≈ 12.3 µM) | 3.12 (≈ 6.14 µM) | 6.25 (≈ 12.3 µM) | 3.12 (≈ 6.14 µM) | 6.25 (≈ 12.3 µM) | 3.12 (≈ 6.14 µM) | 
COc1ccc2c3c4n(c2c1)[C@@]1(C=C/C(=N\Nc2ccc(C(F)(F)F)cc2)CC1)CC[C@@H]4NCC3 [Compound 1j] | 3.12 (≈ 6.5 µM) | 1.56 (≈ 3.25 µM) | 3.12 (≈ 6.5 µM) | 3.12 (≈ 6.5 µM) | 3.12 (≈ 6.5 µM) | 3.12 (≈ 6.5 µM) | IC50 [5]: 2.88 ± 0.14 µM; IC50 [6]: 2.3 ± 0.04 µM; IC50 [9]: 4.601 ± 0.03 µM; IC50 [12]: 10.77 ± 0.05 µM; IC50 [10]: 3 ± 2.4 µM; IC50 [11]: 5.61 ± 0.12 µM
Colistin |  |  |  |  |  |  | MIC E. coli ATCC BAA2469 (NDM-1 carbapenem-resistant) [13]: 1.25 µg/mL; MIC E. coli ATCC25922 [14]: 0.2 µg/mL; MIC E. coli CDC-AR-0346 (ESBL, colistin resistant) [15]: 6.25 µg/mL; MIC Acinetobacter baumannii ATCC BAA1605 (carbapenem-resistant) [16]: 1.25 µg/mL; MIC Acinetobacter baumannii ATCC 19606 [17]: 1.25 µg/mL
Gentamicin [reference compound] |  |  |  |  |  |  | MIC E. coli ATCC BAA2469 (NDM-1 carbapenem-resistant) [13]: >1000 µg/mL; MIC MRSA-ATCC33591 [1]: 2.5 µg/mL; MIC MRSA-1 (clinical isolate) [2]: 50 µg/mL; MIC MRSA-ATCC33592 [3]: >500 µg/mL; MIC MRSA-2 (clinical isolate) [4]: 0.625 µg/mL; MIC E. coli ATCC25922 [14]: 0.625 µg/mL; MIC E. coli CDC-AR-0346 (ESBL, colistin resistant) [15]: >1000 µg/mL; MIC Acinetobacter baumannii ATCC BAA1605 (carbapenem-resistant) [16]: 125 µg/mL; MIC Acinetobacter baumannii ATCC 19606 [17]: 10 µg/mL; MIC MRSA-ATCC700699 (VISA) [7]: 500 µg/mL; MIC MRSA-3 (clinical isolate) [8]: 0.625 µg/mL
